Entries after “also recorded” stand apart in the source; their conditions may differ. Marks after values point to notes of the source that are not given here.
Tests used:
[1] = Crystal size and habit by optical microscopy and SEM after bulk crystallization with additive
Description: Various proteins, poly-amino acids, and molecular mimics of L-cystine were examined as additives. The aforementioned procedure for hexagonal platelet crystallization was repeated. Following the 75 min cooling period, prior to any observable crystallization, the additive was added to the supersaturated L-cystine solution to the desired concentration. The container was sealed and stored for 72 hours at room temperature without stirring, after which the precipitate was collected by vacuum filtration (Whatman Grade 1 filters, >11 μm pores) and were air dried prior to analysis. Crystallization without additive was performed in an identical manner for comparison using a control solution from the same batch. The mass yields of L-cystine crystals were obtained by dividing the mass of L-cystine crystals (collected from growth solution by filtration) by the mass of L-cystine added in the growth solution. The crystals were isolated with 11 μm-pore filters, which were regarded as sufficiently small for reliable capture of the crystals (optical micrographs reveal that the size of crystals was always greater than 50 μm
An Orion 3 Star pH meter (Thermo Electron Corp.) with Orion 9157BNMD probe was used to measure the pH of L-cystine solutions. Crystal morphology was measured with a Leitz ERGOLUZ optical microscope and a Hitachi 3500 scanning electron microscopy. A thin coating of gold (2 nm) was sputtered on SEM samples and images were acquired at low voltage (2-5 kV) to minimize sample melting. ^1H NMR spectra were recorded using a Bruker AVANCE 400 spectrometer and were routinely run using broadband decoupling. Chemical shifts (δ), expressed in ppm, are referenced to the corresponding residual nuclei in deuterated solvent (D2O). Powder X-ray diffraction (XRD) patterns of isolated crystals were acquired with a Panalytical XPert PRO MPD using a Bragg-Brentano geometry with fixed slits at power settings of 45 kV and 40 mA. A CuKa radiation (0.154 nm) source was used with a 1 degree fixed divergence slit (10 mm beam mask) for incident X-rays and a 1 degree anti-scatter slit Ni filter ( 1/16 degree receiving slit) for diffracted X-rays.

[2] = Bulk crystallization of L-cystine in the presence of additives (mass yield); conditions: for Yield (%) = (collected mass by filtration, >11 μm)/(total mass added) × 100%: 2 mg/L additive, 0.7 g/L L-cystine (pH 6.8), no additive 80, approximate error ±8%, Dihydrochloride
Description: Alternately, the hexagonal crystals can be obtained by crystallization performed near neutral pH (Sa) The hexagonal form was crystallized from a supersaturated L-cystine solution prepared by adding 70 mg of L-cystine to 100 mL of deionized water (3 mM), and heating under reflux at 100° C. for 20 min with stirring to completely dissolve L-cystine. […] This concentration was used for bulk crystallization studies in the presence of additives so that a measurable amount of bulk crystals could be obtained in a reasonable time. The solution was then allowed to cool slowly with stirring for 75 min. 30 mL aliquots were transferred to separate glass containers, which were then sealed to prevent evaporation and exposure to airborne particulates and stored for 72 hours at room temperature without stirring. […] The crystals retrieved in this manner were used for AFM studies by mounting individual crystals according to the procedure described below.
Various proteins, poly-amino acids, and molecular mimics of L-cystine were examined as additives. The aforementioned procedure for hexagonal platelet crystallization was repeated. Following the 75 min cooling period, prior to any observable crystallization, the additive was added to the supersaturated L-cystine solution to the desired concentration. […] Crystallization without additive was performed in an identical manner for comparison using a control solution from the same batch. The mass yields of L-cystine crystals were obtained by dividing the mass of L-cystine crystals (collected from growth solution by filtration) by the mass of L-cystine added in the growth solution.
Additives chosen for these studies were various proteins, poly-amino acids, and molecular mimics of L-cystine (see Table 1). The above procedure for hexagonal platelet crystallization was repeated until completion of the 75 min cooling period, at which point 29.5 g of solution was transferred to a 100 mL beaker containing 0.5 g of separately prepared additive solution to yield net concentrations of 2 mg/L additive and 0.7 g/L L-cystine. Additive solutions were replaced with deionized water of equivalent volume for control measurements. […]
L-cystine bulk crystallization was investigated in the presence of various polymers, urinary constituents, fish antifreeze proteins (AFPs), and L-cystine derivatives (i.e. structural mimics of L-cystine), which were analyzed as possible growth inhibitors of hexagonal L-cystine. The potency of each additive was assessed by comparing the difference in crystal yield (Table 1), which is equal to the mass of crystals formed in the presence of 2 mg/L additive (isolated with […]) divided by the total mass of L-cystine (700 mg/L).

[3] = AFM step velocity and hillock imaging with L-cystine diesters under continuous flow
Description: Atomic force microscopy was performed with a Digital Instruments (Santa Barbara, Calif.) Nanoscope Ma Multimode system. All measurements were performed in a cell designed to contain liquids for in situ imaging, including step velocity measurements. All measurements were performed in contact mode using Veeco NP_B Si3N4 tips on silicon nitride cantilevers with a spring constant of 0.12N/m (triangular, 196 μm length, 41 μm width). L-cystine crystals (hexagonal form) were transferred onto an AFM specimen disk coated with partially cured (1 hr) UV-curable optical cement (Type SK-9, EMS Acquisition Corp.) by gently pressing the disk against hexagonal platelets collected by filtration (Whatman Nuclepore membrane, 8 μm). The (001) faces of the hexagonal plates naturally aligned parallel with the specimen disk such that the velocity of the equivalent {100} steps could be measured readily by AFM. The partially cured polymer with the adhered crystals was cured completely by additional UV radiation (2 hrs) prior to analysis. The mounted L-cystine crystals were etched slightly by immersion in deionized water for 30 sec at 60° C. to remove amorphous deposits or impurities that may be present on the surface. Step velocities on the hexagonal L-cystine crystals were measured by AFM using a fluid cell containing an aqueous solution, supersaturated with L-cystine (2 mM), introduced to the cell via a syringe. Step velocities were determined by measuring the distance of the steps from a reference point, usually the dislocation core, in consecutive deflection images acquired at periodic intervals, ranging from 9-14 sec. Measurements were acquired under continuous flow of fresh solution in order to maintain constant supersaturation and additive concentration. […] The step velocities, which correspond to the crystal growth rates, were measured with and without inhibitor for each pair.

Which results are given for `COC(=O)[C@@H](N)CSSC[C@H](N)C(=O)OC.Cl.Cl` [CDME, Cystine Dimethyl Ester Dihydrochloride]?
needle volume less than hexagonal platelets [1]: ~100 times; size of hexagonal platelets ([1]; 1.7 mg/L CDME, 700 mg/L L-cystine, without additive 200-400 μm): 50-100 μm; number of needles collected ([1]; 25 mg/L (3 wt %) CDME, Dihydrochloride): negligible; also recorded: Trace number of needles; CDME concentration sufficient to inhibit in vitro L-cystine crystallization ([2]; 2 mM L-cystine): ~25 mg/L; Yield (%) = (collected mass by filtration, >11 μm)/(total mass added) × 100% [2]: 13%; Yield (%) = (collected mass by filtration, >11 μm)/(total mass added) × 100% ([2]; listed as L-cystine dimethyl ester): 13* %; CDME amount sufficient to suppress crystallization ([2]; 25 mg/L CDME in supersaturated L-cystine, 8 μm filter pores): 3 wt %; mass yield of needles less than the yield of platelets in the absence of additive ([2]; CDME concentration approaching 5 mg/L): more than 70%; CDME dosage that may be sufficient to inhibit in vivo L-cystine crystallization ([2]; extrapolated from 2 mM to physiological urine L-cystine (~0.4 mM)): less than 4 mg/L; order of step roughening, corresponding to the trend in inhibition ([3]; 0.015 mM inhibitor, 2 mM L-cystine): L-CDME>L-CDEE>L-CDIE>L-CDTE; inhibition of step velocity compared among four L-cystine diesters ([3]; 0.015 M inhibitor): best inhibitor

Reference: US9040261B2, “Compounds as L-cystine crystallization inhibitors and uses thereof” (NEW YORK UNIVERSITY, priority 2009, dated 2015)
